| melting point [°C] | Structure (SMILES) |
| --- | --- |
| 181 | CN(C)c1ncnn2c([C@@H]3O[C@H](CO)[C@@H](O)[C@@]3(C)O)ccc12 [Example 2, (2S,3R,4R,5R)-2-(4-(Dimethylamino)pyrrolo[1,2-f][1,2,4]triazin-7-yl)-5-(hydroxymethyl)-3-methyltetrahydrofuran-3,4-diol] |
| 128 to 131 | C=Cc1cc([C@@H]2O[C@H](CO)[C@@H](O)[C@@]2(C)O)n2ncnc(N)c12 [Example 4, (2S,3R,4R,5R)-2-(4-Amino-5-vinylpyrrolo[1,2-f][1,2,4]triazin-7-yl)-5-(hydroxymethyl)-3-methyltetrahydrofuran-3,4-diol] |

Source: patent publication US8440813B2, “Antiviral nucleoside analogs” (BioCryst Pharmaceuticals, Inc., priority 2007, dated 2013)
